Like-named read-outs stand apart in the source and are kept apart here.
Legend:
OscobB [1] = biological target: T1, OscobB (Oryza sativa, UniProt A2XBC4); experiment: dot blot deacetylation assay; type: biochemical
T1 construct: gene OsI_09569; cobB-like portion 269-501 of OsI_09569, untagged, modified pET28a (insert 711 bp), E. coli BL21(DE3), ion exchange; 25-28 kDa monomer
T1 sequence (A2XBC4 269-501): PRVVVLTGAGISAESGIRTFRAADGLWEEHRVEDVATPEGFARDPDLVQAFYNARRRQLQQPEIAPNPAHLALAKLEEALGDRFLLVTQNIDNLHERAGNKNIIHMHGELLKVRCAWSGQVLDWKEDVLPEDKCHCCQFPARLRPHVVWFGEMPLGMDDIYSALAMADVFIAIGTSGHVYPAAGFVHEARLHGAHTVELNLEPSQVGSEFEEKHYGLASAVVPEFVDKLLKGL

OscobB [2] = biological target: T1, OscobB; experiment: intrinsic tryptophan fluorescence quenching; type: binding
OscobB [3] = biological target: T1, OscobB; experiment: dot blot deacetylation assay; type: biochemical; remark: listed apart in the source

SMILES: Nc1ncnc2c1ncn2[C@@H]1O[C@H](COP(=O)(O)OP(=O)(O)OC[C@H]2OC(O)[C@H](O)[C@@H]2O)[C@@H](O)[C@H]1O (stereo partly shown) [ADP-ribose]
- IC50 (OscobB [1]; NAD+, analog of product O-acetyl-ADP-ribose): 410 µM

SMILES: NC(=O)c1ccc[n+]([C@@H]2O[C@H](COP(=O)(O)OP(=O)(O)OC[C@H]3O[C@@H](n4cnc5c(N)ncnc54)[C@H](O)[C@@H]3O)[C@@H](O)[C@H]2O)c1 [NAD^+]
- Kd (OscobB [2]): 30 ± 2 µM

SMILES: NC(=O)c1cccnc1 [NAM]
- IC50 (OscobB [1]): 253 ± 45 µM

SMILES: Oc1ccc(/C=C/c2cc(O)cc(O)c2)cc1 [resveratrol]
- EC50 (OscobB [3]): 51 µM
